This note sets out measurements from patent publication US20260166182A1, “CYANINE-BASED FLUOROPHORES” (The General Hospital Corporation, priority 2022, published 2026).

Series [1] is described as follows: Serum protein binding kinetics (size exclusion column). The conditions noted are these: bovine, FBS/PBS 50/50 v/v % (serum proteins, mostly albumin), pH 7.4; within 30 min, FBS/PBS 50/50, 37° C. Format: in vitro ADME. As to the method: FIG. 15 Reaction kinetics of SH1, ICG, and IR-780 to serum proteins, mostly albumin. 50 nmol of each dye was mixed with 1 ml of FBS/PBS (pH 7.4) 50/50 v/v %, incubated at 37° C., and analyzed using a BioResolve size exclusion column (200 Å, 2.5 μm, 7.8×300 mm). The binding percentage was calculated by dividing by absorbance of bound dye at 24 h assuming the dyes can bind in maximum capacity in the protein at 24 h.
For orientation: Size exclusion chromatography separates by hydrodynamic size, large species first.

Series [2] deals with lung carcinoma (LLC cell line). The experiment in a line: NIR-II fluorescence imaging of subcutaneous LLC tumor-bearing C57BL/6 mice. Type of series: in vivo, mouse. An excerpt:
General NIR-II fluorescence imaging: A 640×512-pixel InGaAs camera (Ninox640, Raptor Photonics) and macro zoom lens (0-10×; Navitar Zoom 7000 with SWIR coating) along with 900, 1070, 1100, and 1200 nm long-pass (LP) filters from either Thorlab or Edmund optics were used to collect the NIR-II signal. InGaAs camera played a role as an open-air imaging system along with the support of the FLARE system. An 808 nm fiber-coupled diode laser ([…] at the sample) was used as an excitation source. Data acquisition was done using in-house developed software. […] Mice were imaged with intact skin using InGaAs camera. At least 3 mice were analyzed for each sample. Tumor-bearing mouse models: Animals were housed in an AAALAC-certified facility and were studied under the protocols approved by the MGH IACUC (2016N000136). Mice were maintained under anesthesia with isoflurane and oxygen during the experiment. To establish the various tumor-bearing mouse models including lung carcinoma, pancreatic ductal adenocarcinoma (PDAC), and triple negative breast adenocarcinoma, eight-week-old C57BL/6 mice (Taconic Farms, Germantown, NY) were subcutaneously injected with 2×10^5 LLC, Pan02, and E0771 cells suspended in DMEM/Matrigel (100 μL, 50 v/v %) in the flank region, respectively. Female C57BL/6 mice were used for the breast cancer (E0771) model, otherwise male mice were used. […] Statistical analysis: The fluorescence and background intensities of a region of interest over each tissue were quantified using customized imaging software and ImageJ v1.48 (National Institutes of Health, Bethesda, MD). The signal-to-background ratio (SBR) was calculated as SBR=fluorescence/background, where background was the fluorescence intensity of muscle. Data were reported as mean±s.e.m. with a minimum of three biological replicates. Student's t-test statistical analysis was performed to evaluate the significance of the experimental data. The differences among groups were determined using one-way ANOVA analysis to assess the statistical differences among more than two groups. […] The data was indicated with *p<0.05, ** p<0.01, *** p<0.001, and **** p<0.0001.

`CCCCN1/C(=C/C=C2\CCCC(/C=C/C3=[N+](CCCC)c4ccc(Cl)cc4C3(C)C)=C2Cl)C(C)(C)c2cc(Cl)ccc21` [SH1, 1-butyl-2-((E)-2-((E)-3-(2-((E)-1-butyl-5-chloro-3,3-dimethylindolin-2-ylidene)ethylidene)-2-chlorocyclohex-1-en-1-yl)vinyl)-5-chloro-3,3-dimethyl-3H-indol-1-ium]: the fraction unbound (commonly the share of the substance not bound to proteins or other matrix) at 30 min, 50 μM in series [1] is about 0.65. The “tumor targeting / tumor signal” value in series [2] (intravenous, NIR-II imaging until 48 h post-injection) was “superb signal intensity in tumor area”. The same compound yielded a TBR in series [2] (larger-sized lung tumors) of 23.7.
